Results published in ChEMBL document CHEMBL1159374, “Callysponginol sulfate A, an MT1-MMP inhibitor isolated from the marine sponge Callyspongia truncata” (J Nat Prod, 2003).
Where a name gives a salt, the structure may show the parent alone. Activity calls are given as the source filed them. The calls are words filed in the database; no cut-off is given here.

Molecular target: Matrix metalloproteinase-14 (Homo sapiens, UniProt P50281)
Assay: Inhibition of truncated recombinant MT1-MMP expressed in Escherichia coli JM109 after 1 hr by fluorescence assay

SMILES	IC50 [µM]	Activity
CCCCCC/C=C\CCCCCCCCCCCCC#C[C@@H](OS(=O)(=O)O)C(=O)O [CALLYSPONGINOL SULFATE A]	31.2	–
CCCCCC/C=C\CCCCCCCCCCCCC#C[C@@H](O)C(=O)O	–	inactive
CC(CC[C@@H](C)[C@H]1CC[C@H]2[C@@H]3C[C@H](OS(=O)(=O)O)[C@H]4C[C@H](OS(=O)(=O)O)[C@@H](OS(=O)(=O)O)C[C@]4(C)[C@H]3CC[C@]12C)C(C)(C)C (stereo partly drawn) [HALISTANOL SULFATE]	25.2	–
